Drawing on PubChem BioAssay (NCI), this text covers TGI for two compounds.

Among the test systems are DLD-1 colon; DMS 273 small cell lung; DMS 114 small cell lung; HOP-18 NSCLC; M19-MEL melanoma; XF 498 CNS; KM20L2 colon; SNB-78 CNS.
Common to all, as to assay: NCI anticancer screen, dose series, 48 h

Each structure is given as a SMILES string.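 Protocol summary: plate cells (96-well), add compound at 5 concentrations, incubate 48 h, interpolate endpoints linearly. TGI is the concentration that stops growth completely.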

As to `O=c1cc(-c2ccccc2)[nH]c2cc(F)cc(F)c12`, the TGI was above 100 µM with DLD-1 colon; above 100 µM in the assay with DMS 273 small cell lung; 93.2 µM in the assay with DMS 114 small cell lung; above 100 µM in the assay on HOP-18 NSCLC; above 100 µM with M19-MEL melanoma.

As for `CC(Oc1ccc(Oc2cnc3ccc(Cl)cc3n2)cc1)C(=O)O` (stereo not drawn), the TGI in the assay with DLD-1 colon, with XF 498 CNS, with DMS 273 small cell lung, with KM20L2 colon, with DMS 114 small cell lung and in the assay on HOP-18 NSCLC was above 100 µM throughout. The TGI in the assay on SNB-78 CNS and with M19-MEL melanoma was above 100 µM each time.
